We go through four molecules from paper PMC12027702, “Evaluation of Tyrosinase Inhibitory Activity of Carbathioamidopyrazoles and Their Potential Application in Cosmetic Products and Melanoma Treatment” (International Journal of Molecular Sciences, 2025).

This experiment addresses T1, mushroom tyrosinase.
T1 construct: gene PPO3; PDB 2Y9X is only the docking model
As to the kind of experiment: Dixon plot, L-DOPA oxidation, absorbance at […] nm. It is filed as biochemical. The following applies: L-DOPA substrate, phosphate buffer pH 6.88, 20 °C, 20 min preincubation, 10% DMSO; competitive.
As a reminder, the Ki is the dissociation constant of the complex between target and ligand, obtained from inhibition or displacement. Low values mean higher affinity, high ones lower affinity. `Cc1cc(C)n(C(N)=S)n1` [compound 1, 1-[amino(thioxo)methyl]-3,5-dimethyl-1Hpyrazole] gave a Ki of 14.6 µM.
For `CCc1cc(CC)n(C(N)=S)n1` [compound 2, 1-[amino(thioxo)methyl]-3,5-diethyl-1Hpyrazole] the value was 64.4 µM; for `NC(=S)n1nc(-c2ccccc2)cc1O` [compound 3, 1-[amino(thioxo)methyl]-5-hydroxy-3-phenyl-1Hpyrazole], 118 µM.
`Cc1cc(O)n(C(N)=S)n1` [compound 4, 1-[amino(thioxo)methyl]-5-hydroxy-3-methyl-1H-pyrazole] came in with a Ki of 7.88 µM.
